Several values for one entry are separate records, joined by “and”; a condition that tells them apart may be missing. Equal values may be shown once. Where a name gives a salt, the structure may show the parent alone. Read-outs that look alike come from different tables or passages of the source.
How the values were obtained:
5-HT2AR [1] = molecular target: T1, 5-HT2AR (Homo sapiens, UniProt P28223); assay: cell-based; format: cell-based
T1 construct: expressed in transfected cells; host or cells: HEK 293T (transient transfection)
Target sequence in this assay (P28223 whole entry): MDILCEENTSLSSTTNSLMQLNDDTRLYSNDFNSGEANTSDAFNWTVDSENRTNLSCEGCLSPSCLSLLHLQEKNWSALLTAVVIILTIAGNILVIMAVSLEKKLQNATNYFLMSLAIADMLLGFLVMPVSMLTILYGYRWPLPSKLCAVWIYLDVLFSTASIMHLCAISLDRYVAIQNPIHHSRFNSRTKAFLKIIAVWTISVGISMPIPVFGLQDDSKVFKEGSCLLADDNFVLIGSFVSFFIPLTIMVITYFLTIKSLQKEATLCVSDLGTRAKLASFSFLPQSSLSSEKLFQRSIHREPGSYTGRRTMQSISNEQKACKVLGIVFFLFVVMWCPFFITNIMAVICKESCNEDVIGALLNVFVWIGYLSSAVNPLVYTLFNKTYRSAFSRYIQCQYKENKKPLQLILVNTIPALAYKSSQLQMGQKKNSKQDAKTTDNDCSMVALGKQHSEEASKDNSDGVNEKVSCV

5-HT2AR [2] = molecular target: T1, 5-HT2AR; assay: cell-based; format: cell-based; settings: for Emax: HEK-293T, read-out: β-arr2 Emax (%) [CI]
Target sequence in this assay (P32121 whole entry): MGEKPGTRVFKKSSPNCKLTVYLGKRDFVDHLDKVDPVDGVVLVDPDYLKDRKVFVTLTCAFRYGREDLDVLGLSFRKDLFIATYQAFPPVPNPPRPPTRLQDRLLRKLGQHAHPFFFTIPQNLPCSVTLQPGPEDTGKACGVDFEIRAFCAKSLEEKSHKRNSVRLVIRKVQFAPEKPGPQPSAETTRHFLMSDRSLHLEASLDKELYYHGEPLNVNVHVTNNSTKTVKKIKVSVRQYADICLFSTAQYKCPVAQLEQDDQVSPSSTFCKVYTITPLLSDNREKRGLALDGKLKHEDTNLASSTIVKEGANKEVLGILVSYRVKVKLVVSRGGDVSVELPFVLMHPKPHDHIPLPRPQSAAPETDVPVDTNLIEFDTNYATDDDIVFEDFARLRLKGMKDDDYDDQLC
Target sequence in this assay (P28223 whole entry): as the sequence (P28223 whole entry) above

5-HT2AR [3] = molecular target: T1, 5-HT2AR; format: cell-based
Target sequence in this assay (P28223 whole entry): as above

[4] = molecular target: T2, 5-HT2AR S159A-mutated receptor (Homo sapiens, UniProt P28223, S159A); assay: cell-based; format: cell-based; settings: for EC50: read-out: β-arr2 EC50 (nM) [CI]
T2 construct: expressed in transfected cells; host or cells: HEK 293T (transient transfection); mutant made by site-directed mutagenesis of 5-HT2AR-LgBiT
Target sequence in this assay (P28223 whole entry S159A): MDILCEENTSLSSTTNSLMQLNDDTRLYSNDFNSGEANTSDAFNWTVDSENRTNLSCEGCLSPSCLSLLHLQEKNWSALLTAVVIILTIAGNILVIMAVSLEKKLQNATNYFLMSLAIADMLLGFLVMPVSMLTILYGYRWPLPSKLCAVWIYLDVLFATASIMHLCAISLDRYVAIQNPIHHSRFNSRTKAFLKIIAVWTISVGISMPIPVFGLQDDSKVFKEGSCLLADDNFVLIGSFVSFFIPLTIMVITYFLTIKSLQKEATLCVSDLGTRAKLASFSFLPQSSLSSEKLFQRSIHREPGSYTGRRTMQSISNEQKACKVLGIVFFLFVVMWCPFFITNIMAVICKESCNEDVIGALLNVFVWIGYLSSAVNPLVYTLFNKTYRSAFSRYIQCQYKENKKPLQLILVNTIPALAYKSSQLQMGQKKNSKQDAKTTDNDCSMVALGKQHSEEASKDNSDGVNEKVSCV
Target sequence in this assay (P32121 whole entry partner): as the sequence (P32121 whole entry) above

[5] = test system: 5-HT2AR S159A-mutated receptor; assay: cell-based; format: cell-based, human
[6] = molecular target: T2, 5-HT2AR S159A-mutated receptor; assay: cell-based; format: cell-based; settings: for Emax: read-out: miniGαq Emax (%) [CI]
Target sequence in this assay (P28223 whole entry S159A): as the sequence (P28223 whole entry S159A) above

[7] = test system: 5-HT2AR S159A-mutated receptor; assay: Bias factor (βarr2 vs miniGαq recruitment), intrinsic relative activity approach, S159A mutated 5-HT2AR; format: cell-based, human; settings: 5-HT2A-S159A; for Alternative β-factor: from the combined EC50 and Emax values; for β-factor: average of three experiments
Method: The resulting data were analyzed as described before in more detail.[55] In brief, the obtained time–luminescence profiles are corrected for interwell variability and used for the calculation of the area under the curve (AUC), from which the AUC of the corresponding solvent control is subtracted. Data are then normalized using GraphPad Prism software (San Diego, CA), where the maximal response of the reference agonist is arbitrarily set at 100%. After pooling the data of the individual experiments, the potency and efficacy values are calculated in GraphPad Prism through three parametric nonlinear regression analysis. To quantify the tendency of the measured substances toward preferentially inducing one pathway or the other, bias factors are calculated via the “intrinsic relative activity approach.[56],[57] In this approach, an RAi value is calculated for each substance in each of the measured assays, relative to a reference agonist, using the following formula [drawing 1] The obtained values for the respective pathways are then combined into a bias factor, βi [drawing 2] This formula implies that the value of βi for the reference agonist is 0. A positive bias factor indicates a preference toward the recruitment of βarr2 over miniGαq, compared to the respective reference agonist. A negative bias factor then points to a relative preference toward the recruitment of miniGαq over βarr2. To assess whether the obtained bias factors are statistically significant from 0, a Kruskal–Wallis analysis (which is the nonparametric counterpart of one-way analysis of variance (ANOVA), selected a priori to avoid presumptuous conclusions) with post hoc Dunn’s multiple comparison was carried out in GraphPad Prism. To qualitatively visualize the possible preference of a certain substance towards recruiting either one cytosolic protein or the other, bias plots were generated via GraphPad Prism. To this end, the normalized AUC values obtained in the βarr2 assay are plotted on the x-axis, and those obtained in the miniGαq assay are plotted on the y-axis. On each plot, both the respective reference agonist and one substance of interest are plotted, and a curve is fitted through the centered second-order (quadratic) polynomial fitting.[58]

5-HT2AR [8] = settings: 5-HT2AR S159A vs WT; ref 52 (Kim et al.); cited from earlier work
5-HT2AR [9] = molecular target: T1, 5-HT2AR; design: method as in PMID 32998000; settings: wild-type 5-HT2AR; previously reported values; cited from earlier work
Target sequence in this assay (P32121 whole entry): as the sequence (P32121 whole entry) above
Target sequence in this assay (P28223 whole entry): as the sequence (P28223 whole entry) above

5-HT2AR [10] = molecular target: T1, 5-HT2AR; design: method as in PMID 32998000; settings: wild-type 5-HT2AR; previously reported values; cited from earlier work; remark: listed apart in the source
Target sequence in this assay (P28223 whole entry): as above

5-HT2AR over 5-HT2CR = settings: cited from earlier work
5-HT2AR [11] = test system: 5-HT2AR; design: method as in PMID 35084960; settings: partial agonist with bias toward βarr2 over Gαq-γ9, reference 5-HT; cited from earlier work
[12] = read-out: miniGαq EC50 (nM) [CI]
[13] = read-out: β-arr2 EC50 (nM) [CI]

| SMILES | EC50 (5-HT2AR [1]; [12]) | β-arr2 Emax (%) [CI] (5-HT2AR [2]) | Emax (5-HT2AR [2]) | EC50 (5-HT2AR [2]; [13]) | Reduction of agonist potency at 5-HT2AR S159A compared to WT, βarr2 recruitment assay [4] | β-arr2 Emax (%) [CI] [4] | EC50 [4] | Reduction of agonist potency at 5-HT2AR S159A compared to WT, miniGαq recruitment assay [5] | EC50 [6, 12] | Alternative β-factor ([7]; referenced with 5-HT) | Alternative β-factor ([7]; referenced with LSD) | other results |
| --- | --- | --- | --- | --- | --- | --- | --- | --- | --- | --- | --- | --- |
| COc1cc(CCNC2COc3ccccc32)c(OC)cc1Br (racemic) [(±)-4c, (±)-N-(4-Bromo-2,5-dimethoxyphenethyl)-2,3-dihydrobenzofuran-3-amine Hydrochloride] | 23 nM | 85.5% | 96.6% | – | – | – | – | – | – | – | – | EC50 (5-HT2AR [1]): 24.5 nM; EC50 (5-HT2AR [2]; β-arr2 EC50 (nM) [CI]): 28.6 nM and 28.7 nM |
| COc1cc(CCNC2CCOc3ccccc32)c(OC)cc1Br (racemic) [(±)-4d, (±)-N-(4-Bromo-2,5-dimethoxyphenethyl)chroman-4-amine Hydrochloride] | 174 nM and 168 nM | 108% | 121% | 132 nM and 134 nM | – | – | – | – | – | – | – | – |
| COc1cc(CCNC2COc3ccccc32)c(OC)cc1C#N (racemic) [(±)-6f, (±)-4-(2-((2,3-Dihydrobenzofuran-3-yl)amino)ethyl)-2,5-dimethoxybenzonitrile Hydrochloride] | 631 nM and 608 nM | 76.0% | 82.9% | 108 nM | ~10 fold | 90.8 [81.9–101] % and 118% | 1020 nM and 1030 nM | 2.6 fold | 1650 nM | 0.486 | 1.010 | Alternative β-factor (5-HT2AR [3]): 1.420 and 0.711; Bias judged from the bias plot, relative to LSD (5-HT2AR [3]): highly biased for βarr2 recruitment; Bias judged from the bias plot, relative to serotonin (5-HT2AR [3]): strong preference toward βarr2 recruitment; Difference in potency between the β-arr2 and miniGαq assays (5-HT2AR [3]): 6 fold |
| COc1cc(CCNCc2cccc(O)c2)c(OC)cc1Br [4a, 3-(((4-Bromo-2,5-dimethoxyphenethyl)amino)methyl)phenol Hydrochloride] | 48.8 nM and 46.9 nM | 98.9% | 112% | 11.1 nM | approximately 15 fold | 89.8 [75.8–108] % and 110% | 172 nM and 175 nM | ~3 fold | 154 nM and 156 nM | 0.096 | 0.566 | miniGαq Emax (%) [CI] [6]: 36.8%; Emax [6]: 21% |
| COc1cccc(CNCCc2cc(OC)c(Br)cc2OC)c1 [4b, 2-(4-Bromo-2,5-dimethoxyphenyl)-N-(3-methoxybenzyl)ethan-1-amine Hydrochloride] | 44.4 nM and 43.3 nM | 100% | 113% | 11.1 nM | 7 fold | 106 [97.5–114] % and 130% | 81.9 nM and 80.4 nM | – | 112 nM | 0.043 | 0.494 | EC50 [6]: 118 nM; miniGαq Emax (%) [CI] [6]: 44.7 [36.9–53.9] % and 81.0%; β-factor ([7]; relative to LSD): 0.565; β-factor ([7]; relative to serotonin (5-HT)): 0.102 |
| NCCc1c[nH]c2ccc(O)cc12 [5-HT, serotonin, reference compound] | – | – | – | – | – | – | – | 13 fold | – | – | – | Drop in efficacy in the S159A-mutated 5-HT2AR, β-arr2 [4]: 33%; Drop in efficacy in the S159A-mutated 5-HT2AR, miniGαq [5]: 173%; β-factor ([7]; relative to LSD): 0.550; β-factor ([7]; relative to serotonin (5-HT)): 0; Change of efficacy with the S159A mutation, Gαq-dissociation BRET assay (5-HT2AR [8]): remained roughly unchanged; Decrease in potency with the S159A mutation, Gαq-dissociation BRET assay (5-HT2AR [8]): 157 fold |
| COc1cc(CCNCc2ccccc2OC)c(OC)cc1C#N [6b, 2,5-Dimethoxy-4-(2-((2-methoxybenzyl)amino)ethyl)benzonitrile Hydrochloride] | 6.7 nM and 6.71 nM and 6.53 nM | 148% | 161% | 1.9 nM and 1.93 nM and 1.94 nM | – | – | – | – | – | – | – | – |
| COc1cc(CCNCc2ccccc2F)c(OC)cc1C#N [6c, 4-(2-((2-Fluorobenzyl)amino)ethyl)-2,5-dimethoxybenzonitrile Hydrochloride] | 168 nM and 164 nM | 105% | 114% | 53.2 nM and 53.3 nM | 12 fold | 86.6 [81.5–92.0] % and 113% | 661 nM and 645 nM | 7 fold | 1130 nM | 0.237 | 0.842 | EC50 [6]: 899 nM; β-factor ([7]; relative to LSD): 0.731; β-factor ([7]; relative to serotonin (5-HT)): 0.186 |
| COc1cc(CCNCc2cccc3c2OCO3)c(OC)cc1C#N [6d, 4-(2-((Benzo[d][1,3]dioxol-4-ylmethyl)amino)ethyl)-2,5-dimethoxybenzonitrile Hydrochloride] | 45.1 nM and 47.3 nM | 106% | 114% | 17 nM and 17.1 nM | – | – | – | – | – | – | – | – |
| COc1cc(CCNCc2cccc(O)c2)c(OC)cc1C#N [6e, 4-(2-((3-Hydroxybenzyl)amino)ethyl)-2,5-dimethoxybenzonitrile Hydrochloride] | 301 nM and 299 nM | 97.5% | 106% | 84.5 nM | ~10 fold | 84.1% | 939 nM and 938 nM | 6.9 fold | 2060 nM | 0.577 | 1.050 | Emax ([4]; read-out: β-arr2 Emax (%) [CI]): 68.2%; miniGαq Emax (%) [CI] [6]: 22.9%; Emax [6]: 12.9% |
| COc1cc(CCNCc2ccccc2O)c(OC)cc1I [25I-NBOH] | – | – | – | – | – | – | – | – | – | – | – | Emax, βarr2 assay (5-HT2AR [9]): 135–141%; Emax, miniGαq assay (5-HT2AR [10]): 111–160% |
| COc1cc(CCNCc2ccccc2OC)c(OC)cc1I [25I-NBOMe] | – | – | – | – | – | – | – | – | – | – | – | Emax, βarr2 assay (5-HT2AR [9]): 135–141%; Emax, miniGαq assay (5-HT2AR [10]): 111–160% |
| COc1cc(CC2CCCC(c3ccccc3OC)N2)c(OC)cc1Br [(S,S)-DMBMPP] | – | – | – | – | – | – | – | – | – | – | – | Selectivity over 5-HT2CR (5-HT2AR over 5-HT2CR): 124 fold |
| COc1ccccc1CCCN1CC[C@H]2[C@@H](C1)c1cccc3c1N2CCN3C [IHCH-7086] | – | – | – | – | – | – | – | – | – | – | – | Emax (5-HT2AR [11]): 13% |
| CCN(CC)C(=O)[C@@H]1C=C2c3cccc4[nH]cc(c34)C[C@H]2N(C)C1 [LSD, lysergic acid diethylamide, reference compound] | – | 90.7% | 99.7% | – | – | 99.9 [93.7–106] % and 128% | – | – | – | – | – | β-factor ([7]; relative to LSD): 0; β-factor ([7]; relative to serotonin (5-HT)): -0.533 |

Reference: article PMC9511481 (Journal of Medicinal Chemistry, 2022)
